Test results taken from ChEMBL document CHEMBL1201862, “PubChem BioAssay data set” (2004).
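How tested: cells in 96-well plates exposed to compound for 48 hours at five concentrations. GI50 is the concentration that inhibits growth by half.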 The source made the active and inactive calls. Rule as the data show it: active = GI50 up to about 1.1 µM and inactive = higher.

How the values were obtained:
Assay in all cases: NCI tumour cell line growth inhibition, 48 h
SK-MEL-5 = test system: SK-MEL-5
SF-539 = test system: SF-539
TK-10 = test system: TK-10
Hs-578T = test system: Hs-578T
SW-620 = test system: SW-620
MOLT-4 = test system: MOLT-4
SK-MEL-28 = test system: SK-MEL-28
NCI-H226 = test system: NCI-H226
SF-268 = test system: SF-268
HOP-92 = test system: HOP-92
A549 = test system: A549
UO-31 = test system: UO-31
NCI-H460 = test system: NCI-H460
MDA-MB-435 = test system: MDA-MB-435
SN12C = test system: SN12C
OVCAR-4 = test system: OVCAR-4
M14 = test system: M14
786-0 = test system: 786-0
Malme-3M = test system: Malme-3M

SMILES | GI50 (SK-MEL-5) | GI50 (SF-539) | GI50 (TK-10) | GI50 (Hs-578T) | GI50 (SW-620) | GI50 (MOLT-4) | GI50 (SK-MEL-28) | GI50 (NCI-H226) | GI50 (SF-268) | GI50 (HOP-92) | GI50 (A549) | GI50 (UO-31) | GI50 (NCI-H460) | GI50 (MDA-MB-435) | GI50 (SN12C) | GI50 (OVCAR-4) | GI50 (M14) | GI50 (786-0) | GI50 (Malme-3M)
O=S1(=O)c2ccccc2N(c2ccccc2)c2nnnn21 | 34.4 µM (inactive) | 18.7 µM (inactive) | 38.5 µM (inactive) | 56.6 µM (inactive) | 22.3 µM (inactive) | 19.5 µM (inactive) | 22.4 µM (inactive) | 36.1 µM (inactive) | 34.7 µM (inactive) | 35 µM (inactive) | 33.4 µM (inactive) | 39.5 µM (inactive) | 31.3 µM (inactive) | 29.4 µM (inactive) | 19.1 µM (inactive) | 16.7 µM (inactive) | 20.9 µM (inactive) | 17.1 µM (inactive) | 
CCOC(=O)C(Cc1ccc(N(CCCl)CCCl)cc1)NC(=O)C(Cc1ccccc1)NC=O (stereo not drawn) | 0.219 µM (active) | 0.139 µM (active) | 0.157 µM (active) | 0.388 µM (active) | 0.184 µM (active) | 0.0289 µM (active) |  |  | 0.0968 µM (active) | 0.126 µM (active) | 0.431 µM (active) | 0.0689 µM (active) | 0.261 µM (active) | 0.263 µM (active) | 0.156 µM (active) | 0.0208 µM (active) | 0.102 µM (active) | 0.116 µM (active) | 0.109 µM (active)
COc1ccc2c(c1O)[C@@]13CCCC=C1[C@@H](C2)N(C)CC3 | 69.2 µM (inactive) |  | > 100 µM (inactive) | 42.5 µM (inactive) | 69.3 µM (inactive) | 44.3 µM (inactive) | > 100 µM (inactive) | 31.6 µM (inactive) | > 100 µM (inactive) | 39.7 µM (inactive) | > 100 µM (inactive) | 39 µM (inactive) | > 100 µM (inactive) | 36.6 µM (inactive) | > 100 µM (inactive) | > 100 µM (inactive) | 79.6 µM (inactive) | > 100 µM (inactive) | 1.75 µM (inactive)
CCS(=O)(=O)CCn1cnc2c1c(=O)n(C)c(=O)n2C | > 100 µM (inactive) | > 100 µM (inactive) | > 100 µM (inactive) | > 100 µM (inactive) | > 100 µM (inactive) | > 100 µM (inactive) | > 100 µM (inactive) | > 100 µM (inactive) | > 100 µM (inactive) | > 100 µM (inactive) | > 100 µM (inactive) | > 100 µM (inactive) | > 100 µM (inactive) | > 100 µM (inactive) | > 100 µM (inactive) | > 100 µM (inactive) | > 100 µM (inactive) | > 100 µM (inactive) | 
CC(NC(=O)c1c(O)[nH]c(=S)[nH]c1=O)c1ccc([N+](=O)[O-])cc1 (stereo not drawn) | > 100 µM (inactive) | 82.2 µM (inactive) | > 100 µM (inactive) | > 100 µM (inactive) | > 100 µM (inactive) | 29.1 µM (inactive) | > 100 µM (inactive) | 70.1 µM (inactive) | 52.8 µM (inactive) | 39.7 µM (inactive) | > 100 µM (inactive) | > 100 µM (inactive) | > 100 µM (inactive) | > 100 µM (inactive) | > 100 µM (inactive) | 49 µM (inactive) | > 100 µM (inactive) | 94.6 µM (inactive) | 
COC(=O)C(C)(Cc1ccc2c(c1)nnn2C(C)=O)NC(C)=O (stereo not drawn) | > 100 µM (inactive) |  | > 100 µM (inactive) | > 100 µM (inactive) | > 100 µM (inactive) | > 100 µM (inactive) | > 100 µM (inactive) | > 100 µM (inactive) | > 100 µM (inactive) | > 100 µM (inactive) | > 100 µM (inactive) | > 100 µM (inactive) | > 100 µM (inactive) | > 100 µM (inactive) |  | > 100 µM (inactive) | > 100 µM (inactive) | > 100 µM (inactive) | > 100 µM (inactive)
Cc1cc(NC[C@H](O)[C@H](O)[C@H](O)CO)c(Sc2cc(=O)[nH]c(=O)[nH]2)cc1C | > 62.5 µM (inactive) |  | > 62.5 µM (inactive) | > 62.5 µM (inactive) | > 62.5 µM (inactive) | > 62.5 µM (inactive) | > 62.5 µM (inactive) | > 62.5 µM (inactive) | > 62.5 µM (inactive) | > 62.5 µM (inactive) | > 62.5 µM (inactive) | > 62.5 µM (inactive) | > 62.5 µM (inactive) | > 62.5 µM (inactive) | > 62.5 µM (inactive) | > 62.5 µM (inactive) | > 62.5 µM (inactive) | > 62.5 µM (inactive) | > 62.5 µM (inactive)
CC1(CCOCc2ccccc2)NC(=O)NC1=O (stereo not drawn) | > 100 µM (inactive) |  | > 100 µM (inactive) | > 100 µM (inactive) | > 100 µM (inactive) | > 100 µM (inactive) | > 100 µM (inactive) | > 100 µM (inactive) | > 100 µM (inactive) | > 100 µM (inactive) | > 100 µM (inactive) | > 100 µM (inactive) | > 100 µM (inactive) | > 100 µM (inactive) | > 100 µM (inactive) | > 100 µM (inactive) | > 100 µM (inactive) | > 100 µM (inactive) | > 100 µM (inactive)
Cc1cc2c(c(/C=N/c3ccc([N+](=O)[O-])cc3)c1)OC1(C=C2)Oc2ccccc2C(=O)N1C (stereo not drawn) | 31.8 µM (inactive) |  | 24.5 µM (inactive) | 27.2 µM (inactive) | 29.1 µM (inactive) | 4.94 µM (inactive) | 19.9 µM (inactive) | 16 µM (inactive) | 18.7 µM (inactive) | 24.1 µM (inactive) | 28.2 µM (inactive) | 13.5 µM (inactive) | 21.8 µM (inactive) | 31.2 µM (inactive) | 20.5 µM (inactive) | 22.2 µM (inactive) | 23.3 µM (inactive) | 22.6 µM (inactive) | 
O=C(CNC(c1ccccc1)(c1ccccc1)c1ccccc1)NC1CCCCC1NC(=O)CNC(c1ccccc1)(c1ccccc1)c1ccccc1 (stereo not drawn) | > 100 µM (inactive) | > 100 µM (inactive) | > 100 µM (inactive) | 32.9 µM (inactive) | > 100 µM (inactive) | > 100 µM (inactive) | > 100 µM (inactive) |  | 24.2 µM (inactive) | 12 µM (inactive) | > 100 µM (inactive) | > 100 µM (inactive) | > 100 µM (inactive) | > 100 µM (inactive) | > 100 µM (inactive) | > 100 µM (inactive) |  | 85.7 µM (inactive) | > 100 µM (inactive)
CC1(C)CC(=O)C2=C(C1)NC1=C(C(=O)CC(C)(C)C1)C2c1ccc([N+](=O)[O-])cc1 | > 100 µM (inactive) | > 100 µM (inactive) | > 100 µM (inactive) | > 100 µM (inactive) | > 100 µM (inactive) | > 100 µM (inactive) | > 100 µM (inactive) | > 100 µM (inactive) | > 100 µM (inactive) | > 100 µM (inactive) | > 100 µM (inactive) | > 100 µM (inactive) | > 100 µM (inactive) | > 100 µM (inactive) | > 100 µM (inactive) | > 100 µM (inactive) | > 100 µM (inactive) | > 100 µM (inactive) | 
CCOC(=O)C(=O)/C(=C/n1c(=S)[nH]c2ccc([N+](=O)[O-])cc21)C(=O)OCC | 65.5 µM (inactive) | > 100 µM (inactive) | > 100 µM (inactive) | > 100 µM (inactive) | > 100 µM (inactive) | > 100 µM (inactive) | > 100 µM (inactive) | 60 µM (inactive) | > 100 µM (inactive) | > 100 µM (inactive) | > 100 µM (inactive) | > 100 µM (inactive) | > 100 µM (inactive) | > 100 µM (inactive) | > 100 µM (inactive) | > 100 µM (inactive) | > 100 µM (inactive) | > 100 µM (inactive) | 
CC[C@]1(c2ccc3c(c2)OCO3)C=[N+]([O-])O[C@H](OC2CCCC2(c2ccccc2)c2ccccc2)[C@@H]1OC(C)=O (stereo partly drawn) | 1.56 µM (inactive) | 4.22 µM (inactive) | 3.27 µM (inactive) | 3.16 µM (inactive) | 2.96 µM (inactive) | 2 µM (inactive) | 2.12 µM (inactive) | 4.3 µM (inactive) | 2.4 µM (inactive) | 2.09 µM (inactive) | 2.63 µM (inactive) | 2.05 µM (inactive) | 2.24 µM (inactive) | 1.8 µM (inactive) | 3.15 µM (inactive) | 2.62 µM (inactive) | 2.28 µM (inactive) | 1.77 µM (inactive) | 
Cc1cc(O)no1 [HYMEXAZOL] |  | > 100 µM (inactive) | > 100 µM (inactive) | > 100 µM (inactive) | > 100 µM (inactive) |  | > 100 µM (inactive) | > 100 µM (inactive) | > 100 µM (inactive) | > 100 µM (inactive) | > 100 µM (inactive) | > 100 µM (inactive) | > 100 µM (inactive) | > 100 µM (inactive) |  | > 100 µM (inactive) | > 100 µM (inactive) | > 100 µM (inactive) | 
Cc1coc2c1CC1OC1(C)CCC1OC1(C)C2 (stereo not drawn) | > 100 µM (inactive) | > 100 µM (inactive) | > 100 µM (inactive) | > 100 µM (inactive) | > 100 µM (inactive) | > 100 µM (inactive) | > 100 µM (inactive) | > 100 µM (inactive) | > 100 µM (inactive) | > 100 µM (inactive) | > 100 µM (inactive) | > 100 µM (inactive) | > 100 µM (inactive) | > 100 µM (inactive) | > 100 µM (inactive) | > 100 µM (inactive) | > 100 µM (inactive) | > 100 µM (inactive) | 
